Experimental data published in patent US20240381872A1, “SUBSTITUTED 2,3-DIHYDRO[1,3]THIAZOLO[4,5-B]PYRIDINES, SALTS THEREOF AND THEIR USE AS HERBICIDALLY ACTIVE SUBSTANCES” (BAYER AKTIENGESELLSCHAFT, priority 2021, published 2024).

Columns and labels:
Format in all cases: in vivo
Setaria viridis (SETVI) = experiment: Herbicidal post-emergence action, section B (Table B8); details: application rate 1280 g/ha, visual rating about 3 weeks after treatment vs untreated controls; for pest or weed control at 1280 g/ha: Setaria viridis, post-emergence, 504 h, read-out: post-emergence activity against SETVI in %
Outline: (§1)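 Post-emergence greenhouse test: weeds sown in sandy loam, treated at one-leaf stage 2–3 weeks after sowing with WP or EC formulations sprayed as aqueous suspension/emulsion plus 0.5% additive at 600 L/ha. Activity rated visually versus untreated controls after about 3 weeks (100% = plants dead, 0% = like control).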

[1] = system: Amaranthus retroflexus (AMARE); experiment: Herbicidal post-emergence action, section E (Table E3); details: assessed visually after ca. 3 weeks; for post-emergence activity against AMARE in % / pest or weed control at 320 g/ha: application rate 320 g/ha
Description: Seeds of mono- and dicotyledonous weed plants and crop plants were sown, in plastic or organic planting pots, in sandy loam, covered with soil and grown in a greenhouse under controlled growth conditions. 2 to 3 weeks after sowing, the test plants were sprayed in the single-leaf stage. The compounds according to the invention, formulated in form of wettable powders (WP) or as emulsifiable concentrates (EC), were sprayed onto the green plant parts as aqueous suspension or emulsion, with the addition of 0.5% of an additive, at an application rate of 600 l of water/ha (converted). The test plants were placed in the greenhouse for ca. 3 weeks under optimum growth conditions, and then the effect of the preparations was assessed visually in comparison with untreated controls (herbicidal effect in percent (%): 100% effect=plants have died off, 0% effect=as control plants).

[2] = system: Abutilon theophrasti (ABUTH); experiment: Herbicidal pre-emergence action, section C (Table C1); details: visual grading after ca. 3 weeks vs untreated controls; for pest or weed control at 320 g/ha: Abutilon theophrasti, pre-emergence, 504 h, read-out: pre-emergence activity against ABUTH in %
Description: Seeds of mono- and dicotyledonous weed plants and crop plants were sown, in plastic or organic planting pots, in sandy loam and covered with soil. The compounds according to the invention, formulated in the form of wettable powders (WP) or as emulsifiable concentrates (EC), were applied to the surface of the covering soil as aqueous suspension or emulsion, with the addition of 0.5% of an additive, at an application rate of 600 l of water/ha (converted). Following treatment, the pots were placed in a greenhouse and kept under optimum growth conditions for the test plants. The visual grading of the damage to the test plants was carried out after ca. 3 weeks in comparison to untreated controls (herbicidal effect in percent (%): 100% effect=plants have died off, 0% effect=as control plants).

Veronica persica (VERPE) [3] = experiment: Herbicidal post-emergence action, section B (Table B10); details: visual rating about 3 weeks after treatment vs untreated controls
Outline: as §1

[4] = system: Amaranthus retroflexus (AMARE); experiment: Herbicidal pre-emergence action, section A (Table A11)
Outline: (§2)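 Weeds sown in sandy loam, then WP or EC formulations applied pre-emergence to the soil surface as aqueous spray with 0.5% additive at 600 L water/ha. Pots kept in the greenhouse, and damage graded visually after ~3 weeks as % effect against untreated controls (100% = dead).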

Veronica persica (VERPE) [5] = experiment: Herbicidal post-emergence action, section E (Table E9); details: visual assessment ca. 3 weeks after spraying
Outline: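 Effect was rated visually as percent damage relative to untreated plants (100% = died off) about 3 weeks after treatment. Single-leaf-stage plants, 2 to 3 weeks old and grown in sandy loam under glass, had received WP or EC formulations sprayed in water with 0.5% additive at 600 l/ha.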

[6] = system: Alopecurus myosuroides (ALOMY); experiment: Herbicidal pre-emergence action, section C (Table C2); details: visual grading after ca. 3 weeks vs untreated controls; for pest or weed control at 320 g/ha: Alopecurus myosuroides, pre-emergence, 504 h, read-out: pre-emergence activity against ALOMY in %
Outline: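 Pre-emergence greenhouse test: visual percent damage scored about 3 weeks after treatment, relative to untreated pots (100% = dead, 0% = no effect). Formulated compounds (WP or EC, plus 0.5% additive) were applied in 600 l water/ha to the covering soil over seeds sown in sandy loam.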

Stellaria media (STEME) = experiment: Herbicidal post-emergence action, section B (Table B9); details: visual rating about 3 weeks after treatment vs untreated controls; for pest or weed control at 1280 g/ha: Stellaria media, post-emergence, 504 h, read-out: post-emergence activity against STEME in %
Outline: as §1

Lolium rigidum (LOLRI) [7] = experiment: Herbicidal pre-emergence action, section A (Table A5); details: visual grading after ca. 3 weeks vs untreated controls
Outline: as §2

Lolium rigidum (LOLRI) [8] = experiment: Herbicidal post-emergence action, section B (Table B5); details: visual rating about 3 weeks after treatment vs untreated controls
Outline: as §1

Glycine max (GLXMA) = experiment: Pre-emergence effects on crop plants, section D (Table D4); details: visual grading after ca. 3 weeks
Outline: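 Pre-emergence soil-surface spray, 320 g/ha or below, 600 l water/ha + 0.5% additive; WP/EC formulations; sandy loam; greenhouse; visual % damage vs untreated at ~3 wk.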

[9] = Lolium rigidum, pre-emergence, 504 h, application rate 320 g/ha, read-out: pre-emergence activity against LOLRI in %
[10] = Amaranthus retroflexus, post-emergence, 504 h, read-out: post-emergence activity against AMARE in %
[11] = Veronica persica, 504 h, application rate 320 g/ha, read-out: post-emergence activity against VERPE in %
[12] = Amaranthus retroflexus, 504 h, application rate 320 g/ha, read-out: pre-emergence activity against AMARE in %

SMILES | pest or weed control at 1280 g/ha (Setaria viridis (SETVI)) [%] | pest or weed control at 320 g/ha ([2]; application rate 320 g/ha) [%] | pest or weed control at 320 g/ha ([6]; application rate 320 g/ha) [%] | pest or weed control at 1280 g/ha (Stellaria media (STEME); application rate 1280 g/ha) [%] | post-emergence activity against SETVI in % (Setaria viridis (SETVI)) [%] | post-emergence activity against AMARE in % [1] [%] | pre-emergence activity against ABUTH in % ([2]; application rate 320 g/ha) [%] | post-emergence activity against VERPE in % (Veronica persica (VERPE) [3]; application rate 320 g/ha) [%] | post-emergence activity against VERPE in % (Veronica persica (VERPE) [5]; application rate 320 g/ha) [%] | pre-emergence activity against ALOMY in % ([6]; application rate 80 g/ha) [%] | post-emergence activity against STEME in % (Stellaria media (STEME); application rate 320 g/ha) [%] | pre-emergence activity against LOLRI in % (Lolium rigidum (LOLRI) [7]; application rate 320 g/ha) [%] | pest or weed control at 320 g/ha [1, 10] [%] | pre-emergence activity against AMARE in % ([4]; application rate 320 g/ha) [%] | also measured
Cc1cc2c(nc1-c1ccccc1F)NCS2 [Example I-007, 5-(2-fluorophenyl)-6-methyl-2,3-dihydro[1,3]thiazolo[4,5-b]pyridine] | 90 | 80 | 100 | 90 | – | – | – | – | – | – | – | – | – | – | pest or weed control at 80 g/ha ([1]; Amaranthus retroflexus, post-emergence, 504 h, application rate 80 g/ha, read-out: post-emergence activity against AMARE in %): 80%; pest or weed control at 320 g/ha (Veronica persica (VERPE) [3]; Veronica persica, post-emergence, 504 h, application rate 320 g/ha, read-out: post-emergence activity against VERPE in %): 90%; pest or weed control at 1280 g/ha ([4]; Amaranthus retroflexus, 504 h, application rate 1280 g/ha, read-out: pre-emergence activity against AMARE in %): 90%; pest or weed control at 80 g/ha (Veronica persica (VERPE) [5]; Veronica persica, 504 h, application rate 80 g/ha, read-out: post-emergence activity against VERPE in %): 80%; pest or weed control at 320 g/ha (Lolium rigidum (LOLRI) [7]; [9]): 100%
COC(=O)CCC(=O)N1CSc2cc(C)c(-c3ccccc3F)nc21 [Example I-010] | – | – | – | – | 90 | 80 | 80 | 90 | 80 | 90 | 90 | 100 | – | – | pre-emergence activity against AMARE in % ([4]; application rate 1280 g/ha): 100%; post-emergence activity against LOLRI in % (Lolium rigidum (LOLRI) [8]; application rate 1280 g/ha): 90%
Cc1cc2c(nc1-c1ccccc1Cl)NCS2 [Example I-049, 5-(2-chlorophenyl)-6-methyl-2,3-dihydro[1,3]thiazolo[4,5-b]pyridine] | – | 80 | 100 | – | – | – | – | – | – | – | – | – | 90 | – | pre-emergence activity against GLXMA in % (crop plant damage) (Glycine max (GLXMA); application rate 320 g/ha): 0%; pest or weed control at 320 g/ha (Veronica persica (VERPE) [5]; [11]): 80%
CC(=O)N1CSc2cc(Br)c(-c3ccccc3Cl)nc21 [Example I-055, 1-[6-bromo-5-(2-chlorophenyl)[1,3]thiazolo[4,5-b]pyridin-3(2H)-yl]ethanone] | 90 | 80 | 80 | 90 | – | – | – | – | – | – | – | – | 80 | – | pre-emergence activity against GLXMA in % (crop plant damage) (Glycine max (GLXMA); application rate 320 g/ha): 20%; pest or weed control at 320 g/ha [4, 12]: 90%; pest or weed control at 1280 g/ha (Lolium rigidum (LOLRI) [7]; Lolium rigidum, pre-emergence, 504 h, application rate 1280 g/ha, read-out: pre-emergence activity against LOLRI in %): 100%
Cc1cc2c(nc1-c1ccccc1F)N(C(=O)C1(C)CC(Cl)=NO1)CS2 (centres unmarked) [Example I-083] | – | – | – | – | 90 | 80 | 90 | 90 | – | 90 | 90 | 100 | – | 100 | post-emergence activity against VERPE in % (Veronica persica (VERPE) [5]; application rate 80 g/ha): 90%; post-emergence activity against LOLRI in % (Lolium rigidum (LOLRI) [8]; application rate 1280 g/ha): 90%
CCOCCS(=O)(=O)N1C[S+]([O-])c2cc(C)c(-c3ccccc3F)nc21 (centres unmarked) [Example I-127] | 90 | 90 | – | 90 | – | – | – | – | – | – | – | – | 90 | – | pre-emergence activity against GLXMA in % (crop plant damage) (Glycine max (GLXMA); application rate 80 g/ha): 20%; pest or weed control at 1280 g/ha (Veronica persica (VERPE) [3]; Veronica persica, post-emergence, 504 h, application rate 1280 g/ha, read-out: post-emergence activity against VERPE in %): 90%; pest or weed control at 320 g/ha [4, 12]: 90%; pest or weed control at 320 g/ha (Veronica persica (VERPE) [5]; [11]): 90%; pest or weed control at 320 g/ha (Lolium rigidum (LOLRI) [7]; [9]): 100%; pest or weed control at 1280 g/ha (Lolium rigidum (LOLRI) [8]; Lolium rigidum, post-emergence, 504 h, application rate 1280 g/ha, read-out: post-emergence activity against LOLRI in %): 90%
COCC1(C(=O)N2CSc3cc(C)c(-c4ccccc4F)nc32)CC(Cl)=NO1 (centres unmarked) [Example I-128] | – | – | – | – | 90 | 90 | – | 90 | – | 90 | 90 | 100 | – | 90 | pre-emergence activity against ABUTH in % ([2]; application rate 80 g/ha): 80%; post-emergence activity against VERPE in % (Veronica persica (VERPE) [5]; application rate 80 g/ha): 80%; post-emergence activity against LOLRI in % (Lolium rigidum (LOLRI) [8]; application rate 320 g/ha): 90%
Cc1ccccc1-c1nc2c(cc1C)SCN2C(=O)C1(C)CC(Cl)=NO1 (centres unmarked) [Example I-137] | – | – | – | – | 90 | 80 | 90 | – | 80 | 80 | – | – | – | 100 | post-emergence activity against VERPE in % (Veronica persica (VERPE) [3]; application rate 1280 g/ha): 90%; post-emergence activity against STEME in % (Stellaria media (STEME); application rate 1280 g/ha): 90%; pre-emergence activity against LOLRI in % (Lolium rigidum (LOLRI) [7]; application rate 1280 g/ha): 100%
CC1(C(=O)N2CSc3cc(Br)c(-c4ccccc4)nc32)CC(Cl)=NO1 (centres unmarked) [Example I-139] | – | – | – | – | 90 | 90 | 90 | – | 80 | – | – | – | – | 100 | post-emergence activity against VERPE in % (Veronica persica (VERPE) [3]; application rate 1280 g/ha): 90%; pre-emergence activity against ALOMY in % ([6]; application rate 320 g/ha): 80%; post-emergence activity against STEME in % (Stellaria media (STEME); application rate 1280 g/ha): 90%; pre-emergence activity against LOLRI in % (Lolium rigidum (LOLRI) [7]; application rate 1280 g/ha): 100%
